Test results reported in publication PMC3056319 (Journal of medicinal chemistry, 2011).
Where two headings read alike, the source gives them in different places.

Experiments:
[1] = tested on: P. falciparum Indochina W2 clone; experiment: microbe, parasite or virus in culture; type: cell-based
[2] = tested on: P. falciparum multidrug resistant C235 strain (Thailand); experiment: microbe, parasite or virus in culture; type: cell-based
[3] = tested on: RAW 264.7 (rat macrophage) cell line; type: cell-based
[4] = tested on: P. berghei (ANKA strain) sporozoites; parameters: species or system ICR mice (Mus musculus); details: mouse, in vivo
[5] = tested on: Recombinant Zaire Ebola virus (EBOV-eGFP); experiment: microbe, parasite or virus in culture; type: cell-based; details: read-out: EBOV inhibition IC50
[6] = tested on: P. berghei (P Line); details: mouse
[7] = tested on: Vero76 cells; details: African green monkey
[8] = tested on: EBOV; details: cited from earlier work
[9] = tested on: P. falciparum African D6 clone; experiment: microbe, parasite or virus in culture; type: cell-based; details: Plasmodium falciparum, D6, read-out: Antimalarial activity IC50, D6
[10] = biological target: T1, recombinant BoNT/A LC (Clostridium botulinum, UniProt P0DPI0); details: cited from earlier work
[11] = biological target: T1, recombinant BoNT/A LC; type: biochemical, Closteridium botulinum

T1 sequence (P0DPI0 2-448 limits assumed): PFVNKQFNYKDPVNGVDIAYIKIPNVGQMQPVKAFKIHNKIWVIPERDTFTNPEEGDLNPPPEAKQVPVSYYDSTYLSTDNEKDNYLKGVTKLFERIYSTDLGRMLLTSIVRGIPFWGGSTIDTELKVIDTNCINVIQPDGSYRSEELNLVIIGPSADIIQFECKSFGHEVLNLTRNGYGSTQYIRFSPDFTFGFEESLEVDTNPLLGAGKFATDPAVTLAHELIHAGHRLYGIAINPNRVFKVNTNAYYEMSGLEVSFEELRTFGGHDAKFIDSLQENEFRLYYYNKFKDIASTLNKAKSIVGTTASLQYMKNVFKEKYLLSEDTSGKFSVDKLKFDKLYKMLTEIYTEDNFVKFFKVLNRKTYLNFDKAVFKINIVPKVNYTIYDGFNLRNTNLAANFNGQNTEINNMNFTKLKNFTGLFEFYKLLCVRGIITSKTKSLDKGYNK

SMILES	Resistance index (RI) W2/D6 [1]	Selectivity index (IC50) D6 [3]	Selectivity index (IC50) W2 [3]	Selectivity index (IC90) C235 [3]	Selectivity index (IC90) D6 [3]	Selectivity index (IC90) W2 [3]	Toxicity at 20 µM [7]	cell toxicities in dose-response studies [7]	also measured
CCN(CC)CCNc1cc(C)nc2c1ccc1c2ccc2c(NCCN(CC)CC)cc(C)nc21.Cl [Compound 11, N,N'-bis[2-(diethylamino)ethyl]-3,9-dimethylquino[8,7-h]quinoline-1,7-diamine tetrahydrochloride]	0.57/0.55	1555.41; 1189.46	2686.21; 1058.99	281.66; 2827.70	1555.41; 1189.46	2686.21; 1058.99	<20%	< 25%	Resistance index (RI) C235/D6 [2]: 0.57/0.55; delay of parasite patency relative to control mice [4]: 1 to 2 days; delayed patency [4]: 1 days; causal prophylactic protection ([4]; po): does not provide prophylactic protection; IC50 [5]: 5000 to 10000 nM; toxicity in vivo ([6]; ICR, po): >60; >60; no toxicity in vivo; in vivo clinical toxicity [6]: No evidence of in vivo clinical toxicity; day of succumbing to infection (post-parasite inoculation), non-cured mice ([6]; in vivo): 13 to 21 days; mice cured (negative blood smear on day 31 post-infection) ([6]; in vivo): cured one mouse out of five tested
Cc1cc(NCCCN2CCCCC2)c2ccc3c(ccc4c(NCCCN5CCCCC5)cc(C)nc43)c2n1.Cl [Compound 14, 3,9-dimethyl-N,N'-bis(3-piperidin-1-ylpropyl)quino[8,7-h]quinoline-1,7-diamine tetrahydrochloride]							<20%	< 25%	
Cc1cc(NCCCN(C)C)c2ccc3c(ccc4c(NCCCN(C)C)cc(C)nc43)c2n1.Cl [Compound 9, N,N'-bis[3-(dimethylamino)propyl]-3,9-dimethylquino[8,7-h]quinoline-1,7-diamine tetrahydrochloride]									anti-EBOV efficacy in vivo [8]: possesses anti-EBOV efficacy in vivo with no toxicity
CCN(CC)CCCC(C)Nc1ccnc2cc(Cl)ccc12 (stereo not drawn) [CQ, chloroquine, reference compound]									IC50 [9]: 12.3 nM; IC50 ([1]; Plasmodium falciparum, W2, read-out: Antimalarial activity IC50, W2): 456 nM; IC50 ([2]; Plasmodium falciparum, read-out: Antimalarial activity IC50, C235): 139 nM; BoNT/A LC inhibition [10]: weakly inhibit the BoNT/A LC
Cc1cc(NCCCN)c2ccc3c(ccc4c(NCCCN)cc(C)nc43)c2n1.Cl [Compound 7, N,N'-bis(3-aminopropyl)-3,9-dimethylquino[8,7-h]quinoline-1,7-diamine tetrahydrochloride]									type of inhibition kinetics [11]: competitive inhibitors
Cc1cc(NCCN)c2ccc3c(ccc4c(NCCN)cc(C)nc43)c2n1.Cl [Compound 8, N,N'-bis(2-aminoethyl)-3,9-dimethylquino[8,7-h]quinoline-1,7-diamine tetrahydrochloride]									type of inhibition kinetics [11]: competitive inhibitors
Cc1cc(NCCCN2CCOCC2)c2ccc3c(ccc4c(NCCCN5CCOCC5)cc(C)nc43)c2n1.Cl [Compound 16, 3,9-dimethyl-N,N'-bis(3-morpholin-4-ylpropyl)quino[8,7-h]quinoline-1,7-diamine tetrahydrochloride]	0.38/1.54	1430.40; 1302.12	3740.50; 1728.68	929.32; 635.31	1430.40; 1302.12	3740.50; 1728.68	<20%	< 25%	Selectivity index (IC50) C235 [3]: 929.32; 635.31; IC50 ([5]; Zaire ebolavirus, Vero 76, 48 h): ~5000 nM; IC50 [5]: 2500 to 5000 nM
Cc1cc(NCCN2CCOCC2)c2ccc3c(ccc4c(NCCN5CCOCC5)cc(C)nc43)c2n1.Cl [Compound 17, 3,9-dimethyl-N,N'-bis(2-morpholin-4-ylethyl)quino[8,7-h]quinoline-1,7-diamine tetrahydrochloride]	1.03/1.66	1715.68; 2374.36	1662.42; 2601.48	1033.94; 1815.35	1715.68; 2374.36	1662.42; 2601.48			Resistance index (RI) C235/D6 [2]: 1.03/1.66; Selectivity index (IC50) C235 [3]: 1033.94; 1815.35
